Article PMC5693942 (Scientific Reports, 2017)
≈ marks a conversion by molar mass, not a printed value. Where two headings read alike, the source gives them in different places.

Legend:
[1] = Activated sludge simulating microcosms (degradation of FL, formation of NFL); format: physicochemical
Procedure: Activated sludge microcosm experiments were conducted in the dark and aerobic conditions. Three microcosm bioreactors were investigated in duplicate. They were filled with 2 L of fresh activated sludge collected from a local wastewater treatment plant. […] Dark conditions were simulated by covering up the flask with foil. Aerobic conditions were obtained using air from BOC air cylinder and a thorough mixing was maintained using magnetic stirrers. The experiment was 24 hours long. […] Collected samples were subsequently frozen until their analysis to prevent degradation of compounds.
The compounds studied are characterized as having low volatility and therefore volatilization was not considered as a potential removal pathway in studied microcosms. Photodegradation was also not considered (not relevant) under tested activated sludge conditions. Therefore the two important degradation mechanisms to consider were biodegradation and sorption to sludge. […] However, in this study, sorption equilibrium was assumed and therefore sorption could be considered negligible. This is because sorption is assumed to be fast when compared to biological degradation.
Several reports utilized pseudo-first-order kinetics for degradation of micropollutants in activated sludge reactors[48]–[50]. […] Pseudo-first order biodegradation rate k1 [L g^−1h^−1]

[2] = River water simulating microcosms (degradation of FL)
[3] = in vivo; cited from earlier work
[4] = system: Daphnia magna; test: Daphnia magna acute 48 h immobilization assay (Daphtoxkit); format: in vivo; conditions: for Average effect (N immobile, 5 daphnids per replicate): 48 h;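 for Average effect (N immobile, 5 daphnids per replicate): test concentrations in mg per L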
Procedure: Six concentration levels (5 concentrations plus control, four replicate beakers for each concentrations, five individual for each beaker) were tested. […] Each experiment was repeated in triplicate.

[5] = system: Tetrahymena thermophila; test: microbe, parasite or virus in culture; format: cell-based
Procedure: The tests were performed in accordance with the protocols provided by the manufacturer. […] The tests were carried out in disposable spectrophotometric cells of 1 cm path-length, to enable the measurement of the optical density (OD) at 440 nm. […] This change in OD over the time period is used to quantify the degree of inhibition and subsequent calculation of the EC50. Each concentration was repeated in duplicate.

Compound `NCCC(Oc1ccc(C(F)(F)F)cc1)c1ccccc1` (stereo not shown) [NFL, norfluoxetine] has an EF ([1]; 10 µg L-1 microcosm, time 0) of 0.784, an EF ([1]; 10 µg L-1 microcosm, time 0.5) of 0.663 and an EF ([1]; 10 µg L-1 microcosm, time 1) of 0.000. The EF ([1]; 10 µg L-1 microcosm, time 1.5) was 0.887, the EF ([1]; 10 µg L-1 microcosm, time 2) was 0.750 and the EF ([1]; 10 µg L-1 microcosm, time 3) was 0.839. It also gave an EF ([1]; 10 µg L-1 microcosm, time 5) of 0.810, an EF ([1]; 10 µg L-1 microcosm, time 8) of 0.856 and an EF ([1]; 10 µg L-1 microcosm, time 12) of 0.749. The EF ([1]; 10 µg L-1 microcosm, time 24) was 0.752, the “enantiomeric fraction (EF)” value ([1]; 10 µg L^−1 reactor, after further slow removal) was greater than 0.7 and the EF ([1]; 100 µg L-1 microcosm, time 0) was 0.833. The EF ([1]; 100 µg L-1 microcosm, time 0.5) was 0.826, the EF ([1]; 100 µg L-1 microcosm, time 1) was 0.858 and the EF ([1]; 100 µg L-1 microcosm, time 1.5) was 0.872. For the same compound, the EF ([1]; 100 µg L-1 microcosm, time 2) was 0.848, the EF ([1]; 100 µg L-1 microcosm, time 3) was 0.852 and the EF ([1]; 100 µg L-1 microcosm, time 5) was 0.851. For the same compound, the EF ([1]; 100 µg L-1 microcosm, time 8) was 0.843, the EF ([1]; 100 µg L-1 microcosm, time 12) was 0.864 and the EF ([1]; 100 µg L-1 microcosm, time 24) was 0.794. For the same compound, the “enantiomeric fraction (EF)” value ([1]; 100 µg L^−1 microcosm) was greater than 0.7, the EF ([2]; DAR (dark abiotic), day 5) was 0.000 and the EF ([2]; DBR (dark biotic), day 1) was 0.000. It also gave an EF ([2]; DBR (dark biotic), day 3) of 0.333, an EF ([2]; DBR (dark biotic), day 5) of 0.417 and an EF ([2]; LAR (light abiotic), day 2) of 0.000. The EF ([2]; LAR (light abiotic), day 3) was 0.358, the EF ([2]; LAR (light abiotic), day 4) was 0.250 and the EF ([2]; LAR (light abiotic), day 5) was 0.000. For the same compound, the EF ([2]; LAR (light abiotic), day 8) was 0.000, the EF ([2]; LAR (light abiotic), day 9) was 0.000 and the EF ([2]; LAR (light abiotic), day 10) was 0.000. It also gave an EF ([2]; LAR (light abiotic), day 11) of 0.000, an EF ([2]; LAR (light abiotic), day 12) of 0.225 and an EF ([2]; LAR (light abiotic), day 15) of 0.000. It also gave an EF ([2]; LAR (light abiotic), day 16) of 0.225, an EF ([2]; LBR (light biotic), day 1) of 0.000 and an EF ([2]; LBR (light biotic), day 2) of 0.000. It also gave an EF ([2]; LBR (light biotic), day 3) of 0.292 and an EF ([2]; LBR (light biotic), day 5) of 0.292.
In the case of FL glucuronide, the “excreted in the urine as this species” value [3] is given as 7.4%.
With `NCC[C@H](Oc1ccc(C(F)(F)F)cc1)c1ccccc1` [(S)-NFL] the “Average effect (N immobile, 5 daphnids per replicate)” value ([4]; concentration 0.5) was 0.25, the “Average effect (N immobile, 5 daphnids per replicate)” value ([4]; concentration 1.5) was 1 and the “Average effect (N immobile, 5 daphnids per replicate)” value ([4]; concentration 5) was 4. For the same compound, the “Average effect (N immobile, 5 daphnids per replicate)” value ([4]; concentration 16) was 5, the “Average effect (N immobile, 5 daphnids per replicate)” value ([4]; concentration 50) was 5 and the EC50 ([4]; Daphnia magna, D. magna, this study, read-out: EC50_48h -immobilization) was 2.8 mg/L (≈ 9.48 µM). For the same compound, the “times more toxic than (S)-FL” value ([5]; Tetrahymena thermophila) was 10 ×, the EC50 ([5]; Tetrahymena thermophila, T. thermophila, this study, read-out: EC50_24h -growth) was 3.8 mg/L (≈ 12.9 µM) and the EC50 ([5]; Tetrahymena thermophila, definitive test, read-out: 24hEC50) was 4.48 mg/L (≈ 15.2 µM). The EC50 ([5]; Tetrahymena thermophila, range test, read-out: 24hEC50) was 1.98 mg/L (≈ 6.71 µM), the “% I (percentage inhibition)” value ([5]; definitive test, conc. 0.093) was 7.356% and the “% I (percentage inhibition)” value ([5]; definitive test, conc. 0.279) was 12.473%. The “% I (percentage inhibition)” value ([5]; definitive test, conc. 9.302) was 28.891%, the “% I (percentage inhibition)” value ([5]; definitive test, conc. 15.352) was 47.228% and the “% I (percentage inhibition)” value ([5]; definitive test, conc. 24.562) was 80.171%. For the same compound, the “% I (percentage inhibition)” value ([5]; definitive test, conc. 50.660) was 101.066%, the “% I (percentage inhibition)” value ([5]; definitive test, conc. 76.758) was 104.371% and the “% I (percentage inhibition)” value ([5]; range test, conc. 0.005) was 34.102%. For the same compound, the “% I (percentage inhibition)” value ([5]; range test, conc. 0.050) was 7.524%, the “% I (percentage inhibition)” value ([5]; range test, conc. 0.500) was 10.316% and the “% I (percentage inhibition)” value ([5]; range test, conc. 5.000) was 39.684%. The “% I (percentage inhibition)” value ([5]; range test, conc. 50.000) was 105.825%, the Concentration ([1]; 10 µg L-1 microcosm, time 0) was 0.127 ± 0.015 ng/mL and the Concentration ([1]; 10 µg L-1 microcosm, time 0.5) was 0.057 ± 0.006 ng/mL. It also gave a Concentration ([1]; 10 µg L-1 microcosm, time 1.5) of 0.010 ± 0.000 ng/mL, a Concentration ([1]; 10 µg L-1 microcosm, time 2) of 0.151 ± 0.068 ng/mL and a Concentration ([1]; 10 µg L-1 microcosm, time 3) of 0.222 ± 0.038 ng/mL. For the same compound, the Concentration ([1]; 10 µg L-1 microcosm, time 5) was 0.384 ± 0.053 ng/mL, the Concentration ([1]; 10 µg L-1 microcosm, time 8) was 0.315 ± 0.016 ng/mL and the Concentration ([1]; 10 µg L-1 microcosm, time 12) was 0.562 ± 0.219 ng/mL. The Concentration ([1]; 10 µg L-1 microcosm, time 24) was 0.510 ± 0.059 ng/mL, the Concentration ([1]; 100 µg L-1 microcosm, time 0) was 0.553 ± 0.146 ng/mL and the Concentration ([1]; 100 µg L-1 microcosm, time 0.5) was 0.538 ± 0.149 ng/mL. It also gave a Concentration ([1]; 100 µg L-1 microcosm, time 1) of 0.737 ± 0.154 ng/mL, a Concentration ([1]; 100 µg L-1 microcosm, time 1.5) of 0.981 ± 0.052 ng/mL and a Concentration ([1]; 100 µg L-1 microcosm, time 2) of 1.890 ± 0.622 ng/mL. For the same compound, the Concentration ([1]; 100 µg L-1 microcosm, time 3) was 2.515 ± 1.049 ng/mL, the Concentration ([1]; 100 µg L-1 microcosm, time 5) was 3.535 ± 1.300 ng/mL and the Concentration ([1]; 100 µg L-1 microcosm, time 8) was 3.844 ± 1.117 ng/mL. For the same compound, the Concentration ([1]; 100 µg L-1 microcosm, time 12) was 5.346 ± 0.464 ng/mL, the Concentration ([1]; 100 µg L-1 microcosm, time 24) was 5.046 ± 0.415 ng/mL and the Concentration ([2]; DBR (dark biotic), day 3) was 0.001 ± 0.000 ng/mL. For the same compound, the Concentration ([2]; DBR (dark biotic), day 5) was 0.001 ± 0.000 ng/mL, the Concentration ([2]; LAR (light abiotic), day 3) was 0.002 ± 0.001 ng/mL and the Concentration ([2]; LAR (light abiotic), day 4) was 0.001 ± 0.000 ng/mL. The Concentration ([2]; LAR (light abiotic), day 12) was 0.002 ± 0.001 ng/mL, the Concentration ([2]; LAR (light abiotic), day 16) was 0.001 ± 0.000 ng/mL and the Concentration ([2]; LBR (light biotic), day 3) was 0.001 ± 0.000 ng/mL. The Concentration ([2]; LBR (light biotic), day 5) was 0.001 ± 0.000 ng/mL.
